Publication PMC8615111, “Phenolic Thiazoles with Antioxidant and Antiradical Activity. Synthesis, In Vitro Evaluation, Toxicity, Electrochemical Behavior, Quantum Studies and Antimicrobial Screening” (Antioxidants, 2021)
Where two headings read alike, the source gives them in different places.

Tests used:
Cu^2+ chelation assay = assay type: biochemical
E. coli ATCC 8739 = assay: Antimicrobial activity, modified microdilution; assay type: cell-based; conditions: Escherichia coli, ATCC8739
Experimental: (§1) For evaluating the antimicrobial activity of the compounds, […] aerobic microbial strains were used: S. aureus ATCC 25923, S. pyogenes ATCC 19615, P. aeruginosa ATCC 27853, S. enterica ISM 83/37, S. typhimurium ATCC 14028, E. coli ATCC 8739, E. coli ATCC 25922, and C. albicans ATCC 102310 obtained from Food Biotechnology Laboratory, Life Sciences Institute, University of Agricultural Sciences, and Veterinary Medicine Cluj Napoca, where the experiment was performed. The antimicrobial activity of the compounds was determined using a modified microdilution technique, and the followed protocol was previously reported.
(§2) The antimicrobial activity of the final compounds, against seven aerobic microbial strains (S. aureus ATCC 25923, S. pyogenes ATCC 19615, P. aeruginosa ATCC 27853, S. enterica ISM 83/37, S. typhimurium ATCC 14028, E. coli ATCC 8739, E. coli ATCC 25922), and a fungal strain (C. albicans ATCC 102310), was determined using a modified microdilution technique.
(§3) The results of the antimicrobial activity evaluation of the compounds, in comparison to norfloxacin and chloramphenicol used as standard antibiotics and fluconazole used as reference antifungal, are depicted in Table 10.

[1] = tested on: S. typhimurium ATCC 14028; assay: Antimicrobial activity, modified microdilution; assay type: cell-based; conditions: Salmonella enterica
Experimental: as §1, §2, §3

P. aeruginosa ATCC 27853 = assay: Antimicrobial activity, modified microdilution; assay type: cell-based; conditions: Pseudomonas aeruginosa, ATCC27853
Experimental: as §1, §2, §3

S. pyogenes ATCC 19615 = assay: Antimicrobial activity, modified microdilution; assay type: cell-based; conditions: Streptococcus pyogenes, ATCC19615
Experimental: as §1, §2, §3

S. enterica ISM 83/37 = assay: Antimicrobial activity, modified microdilution; assay type: cell-based; conditions: Salmonella enterica, ISM83/37
Experimental: as §1, §2, §3

E. coli ATCC 25922 = assay: Antimicrobial activity, modified microdilution; assay type: cell-based; conditions: Escherichia coli, ATCC25922
Experimental: as §1, §2, §3

S. aureus ATCC 25923 = assay: Antimicrobial activity, modified microdilution; assay type: cell-based; conditions: Staphylococcus aureus, ATCC25923
Experimental: as §1, §2, §3

[2] = ABTS˙^+ radical scavenging assay; assay type: biochemical; conditions: for IC50: ABTS˙^+ scavenging
Experimental: The assay was based on the decolorization of green (2,2′-azinobis-(3-ethylbenzothiazoline-6-sulfonic acid) ABTS˙^+ to ABTS, on the principle reported by Re et al. and was carried out according to our previously published research.
Later, 1950 µL of ABTS˙^+ reagent was added to all cuvettes and they were shaken for well over 10 min in the dark at room temperature. The absorbance of the resulted solutions found in cuvettes was determined spectrophotometrically at λ = 734 nm. The ABTS scavenging activity of the compounds was calculated using the following Equation (1):(1) ABTS scavenging (%)=control absorbance−sample absorbance/control absorbance×100

[3] = NO˙ radical scavenging assay (Griess reaction); assay type: biochemical; conditions: 100 µL of test solution 1 mg/mL in DMSO, 150 min, pH 7.4
Experimental: Scavenging of the NO˙ radical was performed according to some adapted protocols reported in the literature, based on the nitroprusside decomposition at physiological pH and colorimetric quantification of the resulted products using the Griess reaction.
Over 200 µL of 10 mM sodium nitroprusside, 100 µL of test solutions (1 mg/mL in DMSO), and 400 µL phosphate-buffered saline (PBS, pH = 7.4) were added. The mixture was then incubated at room temperature for 150 min on a rotating shaker (GFL Gesellschaft für Labortechnik, Burgwedel, Germany). After that, 1 mL of sulfanilic acid 0.33% in 20% acetic acid was added and after 5 min, 1 mL of naphthylethylenediamine […] 0.1% was added to all test tubes. After 30 min, the absorbance of the sample, given by the chromophore (azo dye) formed during the diazotization of nitrite ions resulting from decomposition of sodium nitroprusside with sulfanilic acid and coupled with naphthylethylenediamine, was measured at 546 nm. The NO˙ radical scavenging activity of the tested compounds was calculated using Equation (3):(3) NO˙ scavenging (%)=control absorbance−sample absorbance/control absorbance×100

[4] = Cyclic voltammetry of the compounds on graphite-based SPE; assay type: physicochemical; conditions: CV, 0.1 M HClO4, graphite-based SPE
Experimental: The evaluated compounds’ stock solutions used were prepared at a concentration of 5 mM. To test their redox properties, dilutions of 0.5 mM and 2 mM were prepared in 0.1 M HClO4 electrolyte (pH = 1.2). Screen-printed electrodes (SPEs; Metrohm DropSens, Oviedo, Spain) (planar electrodes) with graphite and gold working electrodes were used. Cyclic voltammetry (CV) and differential pulse voltammetry (DPV) were the electrochemical methods applied. The experimental conditions for each test are mentioned near the corresponding data (Appendix A).
In Figure 2, the cyclic voltammograms (CVs) for each of the compounds considered in this study, compared individually with the voltammogram obtained in the electrolyte (0.1 M HClO4), are presented. Thus, the oxidation/reduction peaks corresponding to the electrochemical transformations suffered by each compound can be observed in the potential range considered, in an acidic environment (low pH). From Figure 3, where the voltammograms of all eight compounds were presented together, a similarity is observed between 8a and 8b, and among the other compounds, whereas 5a and 5b can be noted as having the highest oxidation signals.

Fe^2+ chelation assay = assay type: biochemical
Experimental: The protocol used for assessing Fe^2+ chelating capacity of the compounds was adapted from a report of Benzie and Strain and previously reported by our group. The iron(II) chelation ability of compounds was calculated using Equation (7):(7) iron chelation (%)=control absorbance−sample absorbance/control absorbance×100
The chelating potential for the ferrous ions of the new compounds was determined, based on their competition for Fe^2+ with ferrozine.

[5] = E. coli ATCC 8739, read-out: MIC
[6] = S. typhimurium ATCC 14028, read-out: MIC
[7] = P. aeruginosa ATCC 27853, read-out: MIC
[8] = S. pyogenes ATCC 19615, read-out: MIC
[9] = E. coli ATCC 25922, read-out: MIC
[10] = S. aureus ATCC 25923, read-out: MIC

| Structure (SMILES) | Chelation Capacity (%), cupric ions (Cu^2+ chelation assay; 3.36 µg/mL) [%] | Chelation Capacity (%), cupric ions (Cu^2+ chelation assay; 6.72 µg/mL) [%] | Chelation Capacity (%), cupric ions (Cu^2+ chelation assay; 10.08 µg/mL) [%] | Chelation Capacity (%), cupric ions (Cu^2+ chelation assay; 13.44 µg/mL) [%] | Chelation Capacity (%), cupric ions (Cu^2+ chelation assay; 16.80 µg/mL) [%] | MIC (S. enterica ISM 83/37) [µg/mL] | % of ABTS˙^+ Scavenged ([2]; 0.5 µg/mL) [%] | % of ABTS˙^+ Scavenged ([2]; 0.75 µg/mL) [%] | % of ABTS˙^+ Scavenged ([2]; 1 µg/mL) [%] | % of ABTS˙^+ Scavenged ([2]; 1.5 µg/mL) [%] | % of ABTS˙^+ Scavenged ([2]; 2.5 µg/mL) [%] | IC50 [2] [µg/mL] | % of NO˙ Scavenged [3] [%] | Eox (V) ([4]; 1st oxidation peak) | Iox (μA) ([4]; 1st oxidation peak) | Eox (V) ([4]; 2nd oxidation peak) | Iox (μA) ([4]; 2nd oxidation peak) | Chelation Capacity (%), ferrous ions (Fe^2+ chelation assay; 50 µg/mL) [%] | Chelation Capacity (%), ferrous ions (Fe^2+ chelation assay; 100 µg/mL) [%] | Chelation Capacity (%), ferrous ions (Fe^2+ chelation assay; 150 µg/mL) [%] | also measured |
| --- | --- | --- | --- | --- | --- | --- | --- | --- | --- | --- | --- | --- | --- | --- | --- | --- | --- | --- | --- | --- | --- |
| Br.C/C(=N\Nc1nc(-c2ccc(O)c(C(N)=O)c2)cs1)c1ccc(O)cc1O [Compound 7a, (E)-1-(4-(3-carbamoyl-4-hydroxyphenyl)thiazol-2-yl)-2-(1-(2,4-dihydroxyphenyl)ethylidene)hydrazin-1-ium bromide] | 8.76 | 16.70 | 26.63 | 34.35 | 38.88 | > 100 | 11.62 | 17.29 | 22.69 | 30.78 | 49.37 | 2.52 | 21.44 | 0.269 | 14.75 | 0.374 | 2.06 | 0.07 | 1.73 | 2.29 | MIC (E. coli ATCC 8739): > 100 µg/mL; MIC [1]: > 100 µg/mL; MIC (P. aeruginosa ATCC 27853): 3.9 µg/mL; MIC (S. pyogenes ATCC 19615): 31.2 µg/mL; MIC (E. coli ATCC 25922): > 100 µg/mL; MIC (S. aureus ATCC 25923): 62.4 µg/mL; Ered (V) ([4]; 2nd reduction peak): 0.205 V; Ired (μA) ([4]; 2nd reduction peak): −4.65 μA; Eox (V) ([4]; 3rd oxidation peak): 0.561 V; Iox (μA) ([4]; 3rd oxidation peak): 2.69 μA; Chelation Capacity (%), ferrous ions (Fe^2+ chelation assay; 200 µg/mL): 3.88% |
| Br.NC(=O)c1cc(-c2csc(N/N=C/c3ccc(O)cc3O)n2)ccc1O [Compound 7b, (E)-1-(4-(3-carbamoyl-4-hydroxyphenyl)thiazol-2-yl)-2-(2,4-dihydroxybenzylidene) hydrazin-1-ium bromide] | 7.23 | 11.41 | 14.46 | 19.40 | 22.72 | > 100 | 25.42 | 30.15 | 36.50 | 49.20 | 69.53 | 1.60 | 26.33 | 0.267 | 13.22 | 0.412 | 15.78 | 0.07 | 3.44 | 9.13 | MIC (E. coli ATCC 8739): > 100 µg/mL; MIC [1]: > 100 µg/mL; MIC (P. aeruginosa ATCC 27853): 15.6 µg/mL; MIC (S. pyogenes ATCC 19615): > 100 µg/mL; MIC (E. coli ATCC 25922): > 100 µg/mL; MIC (S. aureus ATCC 25923): > 100 µg/mL; Ired (μA) ([4]; 1st reduction peak): −0.119 μA; Ired (μA) ([4]; 2nd reduction peak): 0.078 μA; Eox (V) ([4]; 3rd oxidation peak): 0.543 V; Iox (μA) ([4]; 3rd oxidation peak): 6.385 μA; Ired (μA) ([4]; 3rd reduction peak): 0.201 μA; Chelation Capacity (%), ferrous ions (Fe^2+ chelation assay; 200 µg/mL): 16.28% |
| C/C(=N\Nc1nc(-c2ccc(O)c(O)c2)cs1)c1ccc(O)cc1O.Cl [Compound 8a, (E)-2-(1-(2,4-dihydroxyphenyl)ethylidene)-1-(4-(3,4-dihydroxyphenyl)thiazol-2-yl)hydrazin-1-ium chloride] | 11.13 | 17.02 | 25.14 | 34.16 | 38.91 | > 100 | 25.40 | 33.32 | 41.07 | 58.72 | 90.97 | 1.25 | 32.72 | 0.174 | 21.51 | 0.386 | 37.08 | 7.73 | 12.28 | 17.60 | MIC (E. coli ATCC 8739; [5]): > 100 µg/mL; MIC [1, 6]: > 100 µg/mL; MIC (P. aeruginosa ATCC 27853; [7]): 7.8 µg/mL; MIC (S. pyogenes ATCC 19615; [8]): > 100 µg/mL; MIC (E. coli ATCC 25922; [9]): > 100 µg/mL; MIC (S. aureus ATCC 25923; [10]): > 100 µg/mL; Ered (V) ([4]; 2nd reduction peak): 0.101 V; Ired (μA) ([4]; 2nd reduction peak): −4.79 μA; Eox (V) ([4]; 3rd oxidation peak): 0.520 V; Iox (μA) ([4]; 3rd oxidation peak): 4.87 μA; Ered (V) ([4]; 3rd reduction peak): 0.335 V; Ired (μA) ([4]; 3rd reduction peak): −38.91 μA; Chelation Capacity (%), ferrous ions (Fe^2+ chelation assay; 200 µg/mL): 22.64% |
| Cl.Oc1ccc(/C=N/Nc2nc(-c3ccc(O)c(O)c3)cs2)c(O)c1 [Compound 8b, (E)-2-(2,4-dihydroxybenzylidene)-1-(4-(3,4-dihydroxyphenyl)thiazol-2-yl)hydrazin-1-ium chloride] | 7.34 | 11.97 | 16.62 | 20.30 | 26.71 | > 100 | 40.09 | 44.44 | 50.79 | 66.66 | 96.82 | 0.91 | 46.30 | 0.166 | 2.19 | 0.508 | 40.99 | 10.74 | 18.15 | 25.06 | MIC (E. coli ATCC 8739; [5]): > 100 µg/mL; MIC [1, 6]: > 100 µg/mL; MIC (P. aeruginosa ATCC 27853; [7]): 31.2 µg/mL; MIC (S. pyogenes ATCC 19615; [8]): > 100 µg/mL; MIC (E. coli ATCC 25922; [9]): > 100 µg/mL; MIC (S. aureus ATCC 25923; [10]): > 100 µg/mL; Ered (V) ([4]; 3rd reduction peak): 0.325 V; Ired (μA) ([4]; 3rd reduction peak): −40.37 μA; Chelation Capacity (%), ferrous ions (Fe^2+ chelation assay; 200 µg/mL): 33.38% |
